Laboratory results from patent publication US9295676B2, “Mutation mimicking compounds that bind to the kinase domain of EGFR” (The Trustees Of The University of Pennsylvania, priority 2011, dated 2016).

What was measured:
NE91 cells = assay: Anchorage independent growth, soft agar colony formation; assay type: cell-based, mouse
Experimental: Studies on the effects of the target compounds on anchorage-independent growth of tumor cells used four different cell lines, A549, Calu-3, NE91 and T6-17, which have different levels of EGFR molecules on the cell surface. […] Cells were analyzed for their effects on anchorage-independent growth using soft agar assays described previously in Qian, et al., “Inhibition of p185neu kinase activity and cellular transformation of co-expression of a truncated neu protein,” Oncogene, 13: 2149-2157 (1996). The cells were plated in triplicate in 0.4% agar-HBBS and allowed to grow for 2 to 3 weeks. The cells will be fed with 0.5 ml media containing compounds on the day after plating and once a week thereafter. The colonies were stained with the HBSS solution containing 1 mg/ml of P-iodonitrotetrazolium violet (2-[4-iodophenyl]-3-[4-nitrophenyl]-5-phenyltetrazolium chloride). The number of the colonies formed were counted.

AsPC1 pancreatic tumors = assay: In vivo tumor growth in mice with AsPC1 pancreatic tumors; settings: for effect on tumor growth, single agent: 15 mg/kg, FIG. 10
Excerpt: FIG. 10 graphically represents the results of in vivo testing of EEO3 (A) and EEO4 (B) in mice with AsPC1 tumors.

NCI-H1666 cells = assay: Apoptosis by annexin V staining and FACS, wild-type EGFR cells; assay type: cell-based; settings: wild-type EGFR cell line, 1 μM Tarceva® + 1 μM compound, 48 hrs
Experimental: Apoptosis was analyzed by FACS analysis after Annexin V staining and propidium iodide staining of DNA, and by Western blotting tracking caspase cascade activation. […] The cell lysates were subjected to Western blotting with anti-caspase-8, anti-caspase-3, anti-caspase-9 and anti-PARP antibodies to detect cleavage. NCI-H1650 and H3255 cells expressing mutant EGFR were used as a positive control in the apoptosis studies.

wild type human EGFR = biological target: T1, wild type human EGFR (Homo sapiens, UniProt P00533); assay: Western blot of EGFR phosphorylation in NE91 cells (FIG. 6A); assay type: cell-based
T1 construct: expressed in transfected cells; host or cells: NE91 (mouse fibroblasts)
Experimental: (§1) Total EGFR levels were measured as a control.
Studies measuring total EGFR phosphorylation and phosphorylation of different tyrosines, cell lines NE91, NCI-H1666 and A549 expressing wild type EGFR were treated with the target compounds for 3 hours followed by either induction with 50 ng/ml EGF for 15 min or no EGF induction. The cell lysates were subjected to the immunoprecipitation with anti-EGFR antibodies followed by Western blotting with anti-pY99 (total phospho-tyrosine), anti-pY845, anti-pY1045, anti-pY 1068 and/or anti-pY1173 antibodies.

L858R EGFR = biological target: T2, L858R EGFR (Homo sapiens, UniProt P00533, L858R); assay: Western blot of EGFR phosphorylation in mouse fibroblasts expressing L858R EGFR (FIG. 6B); assay type: cell-based
T2 construct: expressed in transfected cells; host or cells: mouse fibroblasts
Experimental: as §1
That is, while the binding affinity of the compounds tested in non-mutated EGFR defined by the cavity described above (and when Leu is present in the 858 position), when the single mutation is introduced such that Leu-858 is replaced by Arg-858—the binding affinity drops dramatically. […] Accordingly, MMCs may be characterized as having a higher binding constant (lower dissociation constant) for non-mutated vs. L858R mutated EGFR.

SMILES	inhibitory effect on colony formation, single agent at low concentration (NE91 cells; low concentration, 1 nM, FIG. 8B)	effect on tumor growth, single agent (AsPC1 pancreatic tumors)	apoptotic activity of Tarceva® in the presence of the MMC (NCI-H1666 cells)	receptor phosphorylation (wild type human EGFR; compound alone, track 3)	Tarceva®-induced inhibition of EGFR phosphorylation (wild type human EGFR; in combination with Tarceva®, track 4)	total EGFR levels (wild type human EGFR; in the presence of the compound)	activation of EGFR phosphorylation (L858R EGFR; cell line expressing mutant EGFR, compound alone, FIG. 6B lanes 1 and 2)	enhancement of Tarceva®-induced inhibition of EGFR phosphorylation (L858R EGFR; mutant cell line, FIG. 6B lanes 7 and 8)	inhibitory effect on cell growth in combination with Tarceva® (NE91 cells; 0.25 μM, FIG. 8A)	anchorage independent cell growth, single agent (NE91 cells; compound alone, 0.25 μM, FIG. 8A)	enhancement of the inhibitory effect of Tarceva® on colony formation (NE91 cells; with a low concentration of Tarceva®, 1 nM, FIG. 8B)	antitumor effect of the combination with Tarceva® (AsPC1 pancreatic tumors; Tarceva® with 15 mg/kg of EEO3, FIG. 10)
C#Cc1cccc(Nc2ncnc3cc(OCCOC)c(OCCOC)cc23)c1 [Tarceva®, erlotinib, reference compound]	does not have any inhibitory effect by itself	only a modest effect on tumor growth										
Nc1ccccc1Sc1nc(-c2ccccc2N)ccc1[N+](=O)[O-] [EEN6A]			increased to the level observed with Tarceva® alone in the mutant cell line									
CC1(C)Cc2cccc(C(=O)N3CCC(O)(c4ccc(Cl)cc4)CC3)c2O1 [EEO3]		weak antitumor effect similar to Tarceva® alone		enhancement of receptor phosphorylation	enhancement of Tarceva®-induced inhibition of EGFR phosphorylation	No changes in total EGFR levels	does not activate EGFR phosphorylation	does not enhance	enhanced the inhibitory effect on cell growth	stimulated cell growth	even more dramatic	significant synergistic antitumor effect
